Counter-ions that a name gives are not always drawn.
Assays:
[1] = biological target: T1, human adenosine A1 receptor (Homo sapiens, UniProt P30542); assay: Adenosine A1 Receptor Functional Assay (A1GAL2); type: cell-based; conditions: CHO-K1 cells, cAMP inducible beta-galactosidase reporter, 4 nM r-PIA/1 uM Forskolin challenge
T1 construct: expressed in transfected cells; host or cells: CHO-K1
T1 sequence (P30542 1-326): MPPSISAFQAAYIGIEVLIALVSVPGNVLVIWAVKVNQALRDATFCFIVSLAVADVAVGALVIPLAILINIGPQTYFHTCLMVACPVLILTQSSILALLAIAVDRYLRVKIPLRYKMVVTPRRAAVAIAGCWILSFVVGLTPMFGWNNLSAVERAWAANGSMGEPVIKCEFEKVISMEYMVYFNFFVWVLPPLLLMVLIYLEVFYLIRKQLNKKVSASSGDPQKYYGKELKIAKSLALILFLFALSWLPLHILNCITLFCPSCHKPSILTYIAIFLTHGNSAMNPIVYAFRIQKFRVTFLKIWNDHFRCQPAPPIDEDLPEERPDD
Method: Adenosine A1 Receptor Functional Assay (A1GAL2)
(§1) To initiate the functional assay, cryopreserved CHO-K1 cells overexpressing the human adenosine A1 receptor and containing a cAMP inducible beta-galactosidase reporter gene were thawed, centrifuged, DMSO containing media removed, and then seeded with fresh culture media into clear 384-well tissue culture treated plates (BD #353961) at a concentration of 10K cells/well. Prior to assay, these plates were cultured for two days at 37° C., 5% CO2, 90% Rh. On the day of the functional assay, culture media was removed and replaced with 45 uL assay medium (Hams/F-12 Modified (Mediatech #10-080CV) supplemented w/0.1% BSA). Test compounds were diluted and 11 point curves created at a 1000× concentration in 100% DMSO. Immediately after addition of assay media to the cell plates, 50 nL of the appropriate test compound antagonist or agonist control curves were added to cell plates using a Cartesian Hummingbird. Compound curves were allowed to incubate at room temperature on cell plates for approximately 15 minutes before addition of a 4 nM r-PIA (Sigma P4532)/1 uM Forskolin (Sigma F3917) agonist challenge (5 uL volume). A control curve of r-PIA in 1 uM Forskolin, a DMSO/Media control, and a single dose of Forskolin were also included on each plate. After additions, cell plates were allowed to incubate at 37° C., 5% CO2, 90% Rh for 5.5-6 hours. After incubation, media was removed, and cell plates were washed 1×50 uL with DPBS w/o Ca & Mg (Mediatech 21-031-CV). Into dry wells, 20 uL of 1× Reporter Lysis Buffer (Promega E3971 (diluted in dH2O from 5× stock)) was added to each well and plates frozen at −20° C. overnight. For β-galactosidase enzyme calorimetric assay, plates were thawed out at room temperature and 20 μL 2× assay buffer (Promega) was added to each well. Color was allowed to develop at 37° C., 5% CO2, 90% Rh for 1-1.5 h or until reasonable signal appeared. The calorimetric reaction was stopped with the addition of 60 μL/well 1M sodium carbonate. Plates were counted at 405 nm on a SpectraMax Microplate Reader (Molecular Devices). Data was analyzed in Microsoft Excel and IC/EC50 curves were fit using a standardized macro.

[2] = biological target: T2, human adenosine A2a receptor (Homo sapiens, UniProt P29274); assay: Adenosine A2a Receptor Functional Assay (A2AGAL2); type: cell-based; conditions: CHO-K1 cells, cAMP inducible beta-galactosidase reporter, 15 nM NECA agonist challenge
T2 construct: expressed in transfected cells; host or cells: CHO-K1
T2 sequence (P29274 whole entry): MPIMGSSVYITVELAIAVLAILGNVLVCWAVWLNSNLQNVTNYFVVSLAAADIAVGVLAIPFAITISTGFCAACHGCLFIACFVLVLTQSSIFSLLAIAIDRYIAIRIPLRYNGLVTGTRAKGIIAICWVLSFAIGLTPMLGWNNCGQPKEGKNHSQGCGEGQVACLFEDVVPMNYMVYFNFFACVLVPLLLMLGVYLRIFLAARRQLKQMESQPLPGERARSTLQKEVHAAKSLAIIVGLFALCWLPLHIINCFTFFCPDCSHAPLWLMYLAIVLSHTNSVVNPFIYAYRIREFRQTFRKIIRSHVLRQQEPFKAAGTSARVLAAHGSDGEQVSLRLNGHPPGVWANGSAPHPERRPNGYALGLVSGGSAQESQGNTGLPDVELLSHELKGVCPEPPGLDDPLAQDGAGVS
Method: Adenosine A2a Receptor Functional Assay (A2AGAL2)
as §1, with “Prior” for “To initiate the functional assay, cryopreserved CHO-K1 cells overexpressing the human adenosine A1 receptor and containing a cAMP inducible beta-galactosidase reporter gene were thawed, centrifuged, DMSO containing media removed, and then seeded with fresh culture media into clear 384-well tissue culture treated plates (BD #353961) at a concentration of 10K cells/well. Prior”, “Compound curves were allowed to incubate at room temperature on cell plates for approximately 15 minutes before addition of a 4 nM r-PIA (Sigma P4532)/1 uM Forskolin (Sigma F3917) agonist challenge (5 uL volume).” left out, “NECA,” for “r-PIA in 1 uM Forskolin,”, “Forskolin (Sigma F3917)” for “Forskolin”, “colorimetric” for “calorimetric”

[3] = biological target: T3, human A2a adenosine receptor (Homo sapiens, UniProt P29274); assay: Ligand Binding Assay for Adenosine A2a Receptor; conditions: HEK293 plasma membrane, radioligand [3H]CGS21680; read-out: A2A-B Ki
T3 construct: purchased PerkinElmer RB-HA2a; host or cells: HEK293 plasma membranes
T3 sequence (P29274 whole entry): as above
Method: Ligand Binding Assay for Adenosine A2a Receptor
Ligand binding assay of adenosine A2a receptor was performed using plasma membrane of HEK293 cells containing human A2a adenosine receptor (PerkinElmer, RB-HA2a) and radioligand [^3H]CGS21680 (PerkinElmer, NET1021). Assay was set up in 96-well polypropylene plate in total volume of 200 μL by sequentially adding 20 μL 1:20 diluted membrane, 130 μL assay buffer (50 mM Tris.HCl, pH7.4 10 mM MgCl2, 1 mM EDTA) containing [^3H] CGS21680, 50 μL diluted compound (4×) or vehicle control in assay buffer. Nonspecific binding was determined by […] NECA. Reaction was carried out at room temperature for 2 hours before filtering through 96-well GF/C filter plate pre-soaked in 50 mM Tris.HCl, pH7.4 containing 0.3% polyethylenimine. Plates were then washed 5 times with cold 50 mM Tris.HCl, pH7.4, dried and sealed at the bottom. Microscintillation fluid 30 μL was added to each well and the top sealed. Plates were counted on Packard Topcount for [^3H]. Data was analyzed in Microsoft Excel and GraphPad Prism programs. (Varani, K.; Gessi, S.; Dalpiaz, A.; Borea, P. A. British Journal of Pharmacology, 1996, 117, 1693)

| SMILES | Ki [1] | Ki [2] | Ki [3] |
| --- | --- | --- | --- |
| Cc1ccc(-c2nc(N)c3cc(C(C)c4ccccc4)sc3n2)o1 (racemic) [Example 16, (±)-2-(5-Methyl-furan-2-yl)-6-(1-phenyl-ethyl)-thieno[2,3-d]pyrimidin-4-ylamine] | 910 nM | 47.8 nM | – |
| Cc1csc(-c2nc(N)c3cc(C(C)c4ccccc4)sc3n2)n1 (racemic) [Example 17, (±)-2-(4-Methyl-thiazol-2-yl)-6-(1-phenyl-ethyl)-thieno[2,3-d]pyrimidin-4-ylamine] | 1420 nM | 100 nM | – |
| CC(c1ccccc1)c1cc2c(N)nc(-c3ncco3)nc2s1 (racemic) [Example 21, (±)-2-Oxazol-2-yl-6-(1-phenyl-ethyl)-thieno[2,3-d]pyrimidin-4-ylamine] | 1180 nM | 19.4 nM | 72.7 nM |
| Cc1ccc(-c2nc(N)c3cc(Cc4ccccc4)sc3n2)o1 [Example 1, 6-Benzyl-2-(5-methyl-furan-2-yl)-thieno[2,3-d]pyrimidin-4-ylamine] | 279 nM | 11 nM | 11.9 nM |
| Cc1ccc(-c2nc(N)c3cc(C(O)c4ccccc4)sc3n2)o1 (centres unmarked) [Example 2, [4-Amino-2-(5-methyl-furan-2-yl)-thieno[2,3-d]pyrimidin-6-yl]-phenyl-methanol] | 20.8 nM | 2.28 nM | – |
| Cc1ccc(-c2nc(N)c3cc(C(=O)c4cccc(CN5CCOCC5)c4)sc3n2)o1 [Example 5, [4-Amino-2-(5-methyl-furan-2-yl)-thieno[2,3-d]pyrimidin-6-yl]-(3-morpholin-4-ylmethyl-phenyl)-methanone] | 505 nM | 230 nM | 100 nM |
| Cc1ccc(-c2nc(N)c3cc(C(=O)c4ccccc4CN4CCOCC4)sc3n2)o1 [Example 7, [4-Amino-2-(5-methyl-furan-2-yl)-thieno[2,3-d]pyrimidin-6-yl]-(2-morpholin-4-ylmethyl-phenyl)-methanone] | – | – | 328 nM |
| CCc1ccc(-c2nc(N)c3cc(Cc4ccccc4)sc3n2)o1 [Example 8, 6-Benzyl-2-(5-ethyl-furan-2-yl)-thieno[2,3-d]pyrimidin-4-ylamine] | 223 nM | 48.8 nM | – |
| C=C(c1ccccc1)c1cc2c(N)nc(-c3nc(C)cs3)nc2s1 [Example 9, 2-(4-Methyl-thiazol-2-yl)-6-(1-phenyl-vinyl)-thieno[2,3-d]pyrimidin-4-ylamine] | > 594 nM | 31 nM | – |
| Cc1csc(-c2nc(N)c3cc(C4(c5ccccc5)CC4)sc3n2)n1 [Example 10, 2-(4-Methyl-thiazol-2-yl)-6-(1-phenyl-cyclopropyl)-thieno[2,3-d]pyrimidin-4-ylamine] | > 610 nM | 107 nM | – |
| COc1ccccc1C(O)c1cc2c(N)nc(-c3ccc(C)o3)nc2s1 (centres unmarked) [Example 11, [4-Amino-2-(5-methyl-furan-2-yl)-thieno[2,3-d]pyrimidin-6-yl]-(2-methoxy-phenyl)-methanol] | 10.2 nM | 1.98 nM | 6.72 nM |
| COc1ccccc1Cc1cc2c(N)nc(-c3ccc(C)o3)nc2s1 [Example 12, 6-(2-Methoxy-benzyl)-2-(5-methyl-furan-2-yl)-thieno[2,3-d]pyrimidin-4-ylamine] | 115 nM | 10.1 nM | 51 nM |
| COc1ccccc1Cc1cc2c(N)nc(-c3nc(C)cs3)nc2s1 [Example 15, 6-(2-Methoxy-benzyl)-2-(4-methyl-thiazol-2-yl)-thieno[2,3-d]pyrimidin-4-ylamine] | 186 nM | 13.2 nM | – |
| N#Cc1ccc(-c2nc(N)c3cc(Cc4ccccc4)sc3n2)o1 [Example 18, 5-(4-Amino-6-benzyl-thieno[2,3-d]pyrimidin-2-yl)-furan-2-carbonitrile] | 3160 nM | 304 nM | – |
| Nc1nc(-c2cnco2)nc2sc(Cc3ccccc3)cc12 [Example 19, 6-Benzyl-2-oxazol-5-yl-thieno[2,3-d]pyrimidin-4-ylamine] | 100 nM | 2.48 nM | – |
| Cn1cnc(-c2nc(N)c3cc(Cc4ccccc4)sc3n2)c1 [Example 20, 6-Benzyl-2-(1-methyl-1H-imidazol-4-yl)-thieno[2,3-d]pyrimidin-4-ylamine] | 2330 nM | 539 nM | – |
| Nc1nc(-c2ccc(C3CC3)o2)nc2sc(Cc3ccccc3)cc12 [Example 23, 6-Benzyl-2-(5-cyclopropyl-furan-2-yl)-thieno[2,3-d]pyrimidin-4-ylamine] | 861 nM | 263 nM | – |
| N#Cc1cccc(-c2nc(N)c3cc(Cc4ccccc4)sc3n2)n1 [Example 24, 6-(4-Amino-6-benzyl-thieno[2,3-d]pyrimidin-2-yl)-pyridine-2-carbonitrile] | > 1040 nM | 26.4 nM | – |
| Nc1nc(-c2ncccn2)nc2sc(Cc3ccccc3)cc12 [Example 25, 6-Benzyl-2-pyrimidin-2-yl-thieno[2,3-d]pyrimidin-4-ylamine hydrochloride] | 618 nM | 17.5 nM | – |
| Cc1nc(-c2nc(N)c3cc(Cc4ccccc4)sc3n2)cs1 [Example 28, 6-Benzyl-2-(2-methyl-thiazol-4-yl)-thieno[2,3-d]pyrimidin-4-ylamine] | 263 nM | 57.2 nM | – |
| Nc1nc(-c2cnccn2)nc2sc(Cc3ccccc3)cc12 [Example 32, 6-Benzyl-2-pyrazin-2-yl-thieno[2,3-d]pyrimidin-4-ylamine] | 90.9 nM | 2.42 nM | – |
| COc1ccccc1Cc1cc2c(N)nc(-c3ccc(C(F)F)o3)nc2s1 [Example 39, 2-(5-Difluoromethyl-furan-2-yl)-6-(2-methoxy-benzyl)-thieno[2,3-d]pyrimidin-4-ylamine] | 516 nM | 13 nM | – |
| COc1ccccc1C(O)c1cc2c(N)nc(-c3ccc(C(F)F)o3)nc2s1 (centres unmarked) [Example 45, [4-Amino-2-(5-difluoromethyl-furan-2-yl)-thieno[2,3-d]pyrimidin-6-yl]-(2-methoxy-phenyl)-methanol] | 34.4 nM | 4.37 nM | – |
